Converted amounts (≈) assume the structure as drawn.
Tested on: not listed separately
Experiment: Inhibition of MraY in Staphylococcus aureus by fluorescence assay
Conditions: not given

SMILES	IC50
CC(C)C[C@H](NC(=O)[C@H](CCCCN)NC(=O)N[C@H](C(=O)O)C(C)C)C(=O)NCCCN[C@@H](C[C@H]1O[C@@H](n2cc(F)c(=O)[nH]c2=O)[C@H](O)[C@@H]1O)C(=O)O	> 100 µM
CC(C)[C@H](NC(=O)N[C@@H](CCCCN)C(=O)N[C@@H](C)C(=O)NCCCN[C@@H](C[C@H]1O[C@@H](n2ccc(=O)[nH]c2=O)[C@H](O)[C@@H]1O)C(=O)O)C(=O)O	95 µM
CC(C)C[C@H](NC(=O)[C@H](CCCCN)NC(=O)N[C@H](C(=O)O)C(C)C)C(=O)NCCCN[C@@H](C[C@H]1O[C@@H](n2ccc(=O)[nH]c2=O)[C@H](O)[C@@H]1O)C(=O)O	2.5 µM
CC(C)C[C@H](NC(=O)[C@H](CCCCN)NC(=O)N[C@@H](C)C(=O)O)C(=O)NCCCN[C@@H](C[C@H]1O[C@@H](n2ccc(=O)[nH]c2=O)[C@H](O)[C@@H]1O)C(=O)O	21 µM
CC(C)C[C@H](NC(=O)[C@H](CCCCN)NC(=O)N[C@H](C(=O)O)C(C)C)C(=O)NCCCN[C@@H](C[C@H]1O[C@@H](n2ccc(=O)[nH]c2=O)C[C@@H]1O)C(=O)O	4.6 µM
Cc1cn([C@H]2C[C@H](O)[C@@H](C[C@H](NCCCNC(=O)[C@H](CC(C)C)NC(=O)[C@H](CCCCN)NC(=O)N[C@H](C(=O)O)C(C)C)C(=O)O)O2)c(=O)[nH]c1=O	> 100 µM
CC(C)C[C@H](NC(=O)[C@H](C)NC(=O)N[C@H](C(=O)O)C(C)C)C(=O)NCCCN[C@@H](C[C@H]1O[C@@H](n2ccc(=O)[nH]c2=O)[C@H](O)[C@@H]1O)C(=O)O	14 µM
CC(C)C[C@H](NC(=O)[C@H](CCCCN)NC(=O)N[C@H](C(=O)O)C(C)C)C(=O)NCCCN[C@@H](C[C@H]1O[C@@H](N2CCC(=O)NC2=O)[C@H](O)[C@@H]1O)C(=O)O	27 µM

Target: not listed separately
Experiment: Inhibition of Clostridium difficile phosphoglycosyl transferase
Set-up: species or system Clostridioides difficile
Conditions: not given

SMILES	IC50
O=c1ccn([C@@H]2O[C@H](CNc3c(NCc4cccc(F)c4)c(=O)c3=O)[C@@H](O)[C@H]2O)c(=O)[nH]1	174 µM

Target: not listed separately
Experiment: Inhibition of Campylobacter jejuni phosphoglycosyl transferase Pg1D
Conditions: not given

SMILES	IC50
O=C(Cn1cc(-c2cccc(F)c2)nn1)NC[C@H]1O[C@@H](n2ccc(=O)[nH]c2=O)[C@H](O)[C@@H]1O	35 µM

Tested on: Mycobacterium tuberculosis
Experiment: Antimycobacterial activity against Mycobacterium tuberculosis H37Rv ATCC 27294 after 14 days by resazurin reduction microplate assay
Format: functional
Conditions: H37Rv ATCC 27294, 336 h

SMILES	MIC50
CC(C)C[C@H](NC(=O)N[C@@H](Cc1c[nH]c2ccccc12)C(=O)O)C(=O)N[C@H](C(=O)NC[C@H]1C[C@@H](O)[C@H](n2ccc(=O)[nH]c2=O)O1)[C@H](C)N(C)C(=O)[C@H](C)N	0.6 µM (≈ 0.453 µg/mL)
C[C@@H]([C@H](NC(=O)[C@@H](NC(=O)N[C@@H](Cc1c[nH]c2ccccc12)C(=O)O)c1ccccc1)C(=O)NC[C@H]1C[C@@H](O)[C@H](n2ccc(=O)[nH]c2=O)O1)N(C)C(=O)CN	> 6.26 µM
C[C@@H](O)[C@H](NC(=O)N[C@@H](Cc1c[nH]c2ccccc12)C(=O)O)C(=O)N[C@H](C(=O)NC[C@H]1C[C@@H](O)[C@H](n2ccc(=O)[nH]c2=O)O1)[C@H](C)N(C)C(=O)CN	2.8 µM (≈ 2.04 µg/mL)
CC[C@H](C)[C@H](NC(=O)N[C@@H](Cc1c[nH]c2ccccc12)C(=O)O)C(=O)N[C@H](C(=O)NC[C@H]1C[C@@H](O)[C@H](n2ccc(=O)[nH]c2=O)O1)[C@H](C)N(C)C(=O)CN	0.93 µM (≈ 0.69 µg/mL)
CC(C)C[C@H](NC(=O)N[C@@H](Cc1c[nH]c2ccccc12)C(=O)O)C(=O)N[C@H](C(=O)NC[C@H]1C[C@@H](O)[C@H](n2ccc(=O)[nH]c2=O)O1)[C@H](C)N(C)C(=O)[C@@H](N)C1CCCCC1	1.1 µM (≈ 0.906 µg/mL)
C[C@@H]([C@H](NC(=O)[C@H](Cc1ccc(O)cc1)NC(=O)N[C@@H](Cc1c[nH]c2ccccc12)C(=O)O)C(=O)NC[C@H]1C[C@@H](O)[C@H](n2ccc(=O)[nH]c2=O)O1)N(C)C(=O)CN	0.52 µM (≈ 0.412 µg/mL)
CC(C)C[C@H](NC(=O)N[C@@H](Cc1c[nH]c2ccccc12)C(=O)O)C(=O)N[C@H](C(=O)NC[C@H]1C[C@@H](O)[C@H](n2ccc(=O)[nH]c2=O)O1)[C@H](C)N(C)C(=O)[C@@H](N)CC(=O)O	9.8 µM (≈ 7.84 µg/mL)
C[C@@H]([C@H](NC(=O)[C@H](CCc1ccccc1)NC(=O)N[C@@H](Cc1c[nH]c2ccccc12)C(=O)O)C(=O)NC[C@H]1C[C@@H](O)[C@H](n2ccc(=O)[nH]c2=O)O1)N(C)C(=O)CN	1.08 µM (≈ 0.853 µg/mL)
CC(C)C[C@H](NC(=O)N[C@@H](Cc1c[nH]c2ccccc12)C(=O)O)C(=O)N[C@H](C(=O)NC[C@H]1C[C@@H](O)[C@H](n2ccc(=O)[nH]c2=O)O1)[C@H](C)N(C)C(=O)[C@@H](N)CC1CCCCC1	1 µM (≈ 0.838 µg/mL)
C[C@@H]([C@H](NC(=O)[C@@H](NC(=O)N[C@@H](Cc1c[nH]c2ccccc12)C(=O)O)C1CCCCC1)C(=O)NC[C@H]1C[C@@H](O)[C@H](n2ccc(=O)[nH]c2=O)O1)N(C)C(=O)CN	0.51 µM (≈ 0.392 µg/mL)
C[C@@H]([C@H](NC(=O)[C@H](CC1CCCCC1)NC(=O)N[C@@H](Cc1c[nH]c2ccccc12)C(=O)O)C(=O)NC[C@H]1C[C@@H](O)[C@H](n2ccc(=O)[nH]c2=O)O1)N(C)C(=O)CN	0.08 µM (≈ 0.0625 µg/mL)

Tested on: Staphylococcus aureus
Experiment: Inhibition of MraY in Staphylococcus aureus at 1 mM by fluorescence assay relative to control
Conditions: not given

SMILES	inhibition
CC(C)C[C@H](NC(=O)[C@H](CCCCN)NC(=O)N[C@H](C(=O)O)C(C)C)C(=O)NCCCN[C@@H](C[C@H]1O[C@@H](n2cc(F)c(=O)[nH]c2=O)[C@H](O)[C@@H]1O)C(=O)O	40%
Cc1cn([C@H]2C[C@H](O)[C@@H](C[C@H](NCCCNC(=O)[C@H](CC(C)C)NC(=O)[C@H](CCCCN)NC(=O)N[C@H](C(=O)O)C(C)C)C(=O)O)O2)c(=O)[nH]c1=O	38%

— ChEMBL document CHEMBL4725382, “Uridine natural products: Challenging targets and inspiration for novel small molecule inhibitors” (Bioorg Med Chem, 2020)
